Experimental data as given in paper PMC11056991, “Promising Anticancer Prodrugs Based on Pt(IV) Complexes with Bis-organosilane Ligands in Axial Positions” (Journal of Medicinal Chemistry, 2024).

Columns and labels:
[1] = Stability in DMEM by 195Pt NMR; assay type: physicochemical; conditions: DMSO-d6/DMEM 1:4, 37 °C, 0, 24, 48, 120 h
From the text: We then decided to evaluate the stability of the two Pt(IV) complexes in the medium (DMEM) used to carry out the in vitro experiments, monitoring their kinetics by ^195Pt NMR at different times to evaluate the possible species formed over time. DMEM is supplemented with proteins and other molecules essential for cell growth (Experimental Section). Thus, similar to the reduction assays, we analyzed the Pt(II)/Pt(IV) region where the expected species appear. […] Both Pt(IV)/Pt(II) signals disappeared after 48 h, most likely again because of the binding of the complex to the proteins.
To each solution was then slowly and carefully added 300 μL of DMEM to avoid the precipitation of the complex, reaching a final concentration of 1:4 (DMSO-d6/DMEM). All these mixtures were performed using a thermoshaker. Each sample was monitored by ^195Pt NMR at 0, 24, 48, and 120 h.

[2] = system: HIEC6 human healthy intestinal cells; experiment: MTT cell viability assay, HIEC6; assay type: cell-based; conditions: MTT; for Reduction in viability of healthy cells (HIEC6): 5 μM
Procedure: (§2) HIEC6 human healthy intestinal cells and HCT 116 and HT-29 human colon cancer cells were supplied by ATCC. Colon cancer cells were cultured in Dulbecco’s modified Eagle’s medium (DMEM) for HCT 116 and HT-29 supplemented with fetal bovine serum (10%). HIEC6 cells were cultured in Opti-MEM supplemented with fetal bovine serum (4%), HEPES (20 mM), glutamine (10 mM), and epidermal growth factor (10 ng/mL). Cells were maintained at 37 °C in a humidified atmosphere containing 5% CO2. Cells were seeded at 30% confluence in DMEM for HCT 116 and in Opti-MEM for HIEC6; after cell adhesion, HIEC6 cells were cultured in DMEM for 24h before being treated. All cells were treated with the indicated components at concentrations of 0.25–50 μM and incubated for 1–5 days as specified.
(§3) The MTT assay relies on a colorimetric reaction based on the capacity of living cells to reduce MTT to formazan and change the color to purple, which is easily measured by colorimetry. This assay estimates the cellular viability after the indicated treatments. Cells were treated with MTT (1:10 in culture medium) and incubated at 37 °C for 3 h for HCT 116 and HT-29 or 6 h for HIEC6. After removal of the medium, the formazan was resuspended in DMSO, transferred to p96 plates, and analyzed by a SpectraFLUOR (Tecan) at 542 nm. In all cases, viability was measured in duplicates of each point in three independent experiments.

[3] = 195Pt NMR reduction kinetics with glutathione; assay type: physicochemical; conditions: GSH 4:1 excess, DMSO/D2O (4:1), 37 °C, 2, 6, 24 h
Procedure: (§1) AsA presents an intracellular concentration of 1 mM, whereas the GSH concentration is 2 mM.[38] This reactivity was monitored by ^195Pt NMR at different times. Thus, by analyzing the different regions where the signals of Pt(II)/Pt(IV) species appear, it is possible to identify and assign the different compounds formed during the reaction. In most cases, the regions where the Pt(II) and Pt(IV) signals appear are separated by more than 3000 ppm.[33]
The reactivity of both complexes toward the reducing agent GSH was also studied using the DMSO/D2O (4:1) mixture. […] In the Pt(II) region, two signals appeared after 24 h at −2728 and −3405 ppm (Figure 2G). The first value is consistent with the cis-PtN2SX fraction,[41],[42] meaning that this species, once reduced to its Pt(II) homologue, coordinates with GSH by displacing a chloride ligand. The second signal corresponds to another Pt(II) moiety with more than one ligand containing sulfur atoms. […]
Each solution was then slowly added to 100 μL of a solution of the corresponding reducing agent (AsA or GSH in an excess of 4:1 against each complex) in D2O at 37 °C. […] Each sample was monitored by ^195Pt NMR at 2, 6, and 24 h.

[4] = system: HCT 116 human colon cancer cells; experiment: MTT cell viability assay, HCT 116; assay type: cell-based; conditions: MTT
Procedure: as §2, §3

[5] = 195Pt NMR reduction kinetics with ascorbic acid; assay type: physicochemical; conditions: AsA 4:1 excess, DMSO/D2O (4:1), 37 °C, 2, 6, 24 h
Procedure: as §1
We first studied the reduction of the complexes against AsA, monitoring the reaction in both the Pt(IV) and Pt(II) region at 2, 6, and 24 h. In both cases, we used a mixture of DMSO/D2O (4:1) to reach the solubilization of the complexes and the AsA. In the Pt(IV)-biSi-1 reduction experiment, during the first hour, only the signal at 1210 ppm appeared in the Pt(IV) region (Figure S13A), which corresponds to the original complex, and no signal was detected in the Pt(II) region.
Each solution was then slowly added to 100 μL of a solution of the corresponding reducing agent (AsA or GSH in an excess of 4:1 against each complex) in D2O at 37 °C. After that, 100 μL of DMSO-d6 was added carefully to each mixture, reaching a final concentration of […] (DMSO-d6/D2O). All of these mixtures were performed using a thermoshaker. Each sample was monitored by ^195Pt NMR at 2, 6, and 24 h.

HCT 116 cells = experiment: Trypan blue exclusion test; assay type: cell-based, human; conditions: HCT 116, 0.5 μM, 2 days
Procedure: HCT 116 cells were harvested by trypsinization followed by centrifugation at 500g for 5 min. The cell pellet was resuspended in 1 mL of PBS. Equal volumes of trypan blue (Bio-Rad cat. no. 1450021) 0.4% and cell suspension were mixed and incubated for 1–3 min at room temperature, and cell counting was carried out using a TC20 Automated Cell Counter (Bio-Rad cat. no. 1450102). The percentage of viable cells was calculated by dividing the number of viable cells per milliliter by the number total of cells per milliliter) × 100. Representative images were acquired using a Zeis light microscope with a 20× objective.

[6] = system: p53 protein levels in HCT 116 cells; experiment: Western blot of p53 levels; assay type: cell-based, human; conditions: HCT 116, 48 h, increasing concentrations
Procedure: Confocal imaging of the DNA damage response was followed by immunofluorescence of histone gH2Ax foci at double-strand DNA breaks (DSB) (Figure 4A). […] However, none of the Pt(IV) prodrugs were able to increase p53 levels even at concentrations higher than those needed to reduce cell viability.
Cells were washed with iced PBS before extract preparation and scraped in whole-cell protein lysis buffer (62.5 mM Tris-HCl pH 6.8, 2% sodium dodecyl sulfate (SDS), 0.01% bromophenol blue sodium salt, and 10% glycerol). Whole-cell protein lysates were incubated 15 min at 95 °C and directly used as whole cell extract or frozen at −80 °C. Proteins from lysed cells or immunoprecipitates were denatured and loaded on sodium dodecyl sulfate polyacrylamide gels and then transferred to polyvinylidene difluoride membranes (Bio-Rad). After blocking with 5% (w/v) milk, the membrane was incubated with the corresponding primary antibodies, anti-p53 sc-126 (Santa Cruz Biotechnology) or anti-tubulin (Sigma-Aldrich), and secondary antibodies (Bio-Rad). The specific bands were analyzed using the ChemiDoc Imaging Systems (Bio-Rad).

[7] = 2 days, (final complexes, Figure 3B)
[8] = 2 days, experiment with intermediates, Figure 3A

## CCO[Si](CCCNC(=O)[O][Pt]([NH2])([NH2])([Cl])([Cl])[O]C(=O)NCCC[Si](OCC)(OCC)OCC)(OCC)OCC [Pt(IV)-biSi-1, cis-Dichloro(diamine)-trans-[3-(triethoxysilyl)propylcarbamate]platinum(IV)]
[1]
  Stability in DMEM (Pt(IV) signal in 195Pt NMR): decreases with time up to 48 h, where a small fraction of the initial complex remains intact
[2]; 0.5 uM, 2 days
  Cell viability, HIEC6 0.5uM 2 days: 99.5 ± 1.8%
[2]; 0.5 uM, 5 days
  Cell viability, HIEC6 0.5uM 5 days: 105.3 ± 3.6%
[2]; 2 days
  Reduction in viability of healthy cells (HIEC6): 60%
[2]; [7]
  Cell viability, HIEC6 5uM 2 days: 40.0 ± 1.8%
[2]; 48 h, supplementary CSV, read-out: IC50 (uM) HIEC6
  IC50: 5.1 ± 0.7 µM
[3]
  Reduction of the Pt(IV) complex by GSH (Pt(IV) signal in 195Pt NMR): at 24 h, there is still a fraction of free complex without undergoing reduction
[4]; 0.5 uM, 2 days
  Cell viability, HCT 116 0.5uM 2 days: 70.1 ± 6.0%
[4]; 0.5 μM, 2 days
  Reduction of viability (cytotoxicity) of HCT 116 tumor cells: very similar to those of cisplatin
[4]; 0.5 uM, 5 days
  Cell viability, HCT 116 0.5uM 5 days: 87.0 ± 5.0%
[4]; 5 μM, 2 days
  Reduction in viability of cancer cells (HCT 116): 20%
[4]; [7]
  Cell viability, HCT 116 5uM 2 days: 78.8 ± 3.1%
[4]; 48 h, supplementary CSV, read-out: IC50 (uM) HCT 116
  IC50: 8.9 ± 0.6 µM
[5]
  Reduction of the Pt(IV) complex by AsA (Pt(IV) signal in 195Pt NMR): after 24 h, this signal underwent a marked decrease in intensity
HCT 116 cells
  Reduction of viability by trypan blue staining: 20%

## N.N.[Cl][Pt][Cl] [cisplatin, Cisplatin, reference compound]
[2]; 2 days
  Reduction in viability of healthy cells (HIEC6): 60%
[4]; 5 μM, 5 days chronic treatment
  Cells survived, HCT 116: more than 50%
HCT 116 cells
  Reduction of viability by trypan blue staining: 20%
[6]
  p53 levels: increased p53 levels (at all concentrations)

## cis-Dichloro(diisopropylamine)-trans-dihydroxoplatinum(IV) [iproplatin, reference compound]
[2]; [8]
  Cell viability, HIEC6 5uM 2 days: 69.8 ± 6.3%
[4]; [8]
  Cell viability, HCT 116 5uM 2 days: 73.6 ± 5.4%

## N.N.[Cl-].[Cl-].[OH-].[OH-].[Pt+4] [oxoplatin, cis-Dichloro(diamine)-trans-dihydroxoplatinum(IV), reference compound]
[2]; [8]
  Cell viability, HIEC6 5uM 2 days: 65.3 ± 10.9%
[4]; [8]
  Cell viability, HCT 116 5uM 2 days: 82.9 ± 6.0%
